The test system of this test is T1, Mle046.
T1 construct: signal peptide (first 27 residues) removed; His-tagged (pColdII), tag kept; codon-optimised gene, E. coli Shuffle T7; theoretical 62 kD
Nature of the test: HPLC ([…] nm), MHET degradation rate, non-linear Michaelis-Menten fit. As to conditions: 40 mM sodium phosphate pH 7.5, 30°C; rate declines at 2,700 μM MHET (fit up to 2,230 μM). In kind it is biochemical, metagenome: marine microbial consortium.

SMILES strings stand for the structures.

For the compound `O=C(O)c1ccc(C(=O)OCCO)cc1` [MHET], the Km amounted to 2640 µM.

For the origin of these results see article PMC8351946, “Mle046 Is a Marine Mesophilic MHETase-Like Enzyme” (Frontiers in Microbiology, 2021).
